This is an account of results in US20200216439A1, “HETERO-1,5,6,7-TETRAHYDRO-4H-INDOL-4-ONES” (BAYER PHARMA AKTIENGESELLSCHAFT, priority 2015, published 2020).

For this experiment, the target named is T1, catalytic domain of human Bub1 (amino acids 704-1085) (Homo sapiens, UniProt O43683).
T1 construct: catalytic domain of human Bub1 (amino acids 704-1085); His6 (N); made in house; host or cells: Hi5 insect cells
Nature of the experiment: Bub1 kinase assay (TR-FRET). The experiment is classed as biochemical. The method in brief: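 Human Bub1 catalytic domain (704-1085, His6-tagged, Hi5-expressed, ~200 ng/mL) preincubated with compound 15 min at 22 °C, then reacted 60 min at 22 °C with 10 μM ATP and 1 μM biotinylated peptide substrate, pH 7.5. EDTA stop; TR-FRET 665/620 ratio; IC50 from 4-parameter fit, 11 concentrations in duplicate.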

The mark [1] stands for this setting: TR-FRET, ATP 10 μM, peptide substrate 1 μM, 60 min at 22° C., average or median if tested more than once, read-out: Inhibition of Bub1 kinase IC50.

Read-outs that look alike come from different tables or passages of the source.

T1 sequence (O43683 704-1085): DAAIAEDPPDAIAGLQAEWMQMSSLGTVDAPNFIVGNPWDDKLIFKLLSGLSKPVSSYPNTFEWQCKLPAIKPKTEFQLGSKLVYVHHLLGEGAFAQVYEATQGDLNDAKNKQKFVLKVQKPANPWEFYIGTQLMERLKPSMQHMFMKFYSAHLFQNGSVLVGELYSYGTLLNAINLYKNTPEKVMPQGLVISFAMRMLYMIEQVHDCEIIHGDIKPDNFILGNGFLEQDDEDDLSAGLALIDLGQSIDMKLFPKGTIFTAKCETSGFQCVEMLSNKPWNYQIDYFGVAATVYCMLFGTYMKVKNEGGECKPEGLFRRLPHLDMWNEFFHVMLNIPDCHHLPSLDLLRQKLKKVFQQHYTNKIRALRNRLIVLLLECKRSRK

For orientation: IC50 means the concentration that inhibits the measured activity by half. Regarding `CC(=O)Nc1cc(-c2[nH]c3c(c2Nc2ccccc2)C(=O)CN(C(=O)OCCF)C3)ccn1` [Example 184, 2-Fluoroethyl 2-(2-acetamidopyridin-4-yl)-3-anilino-4-oxo-1,4,5,7-tetrahydro-6H-pyrrolo[2,3-c]pyridine-6-carboxylate], the IC50 under setting [1] amounted to 0.008 µM.
For the molecule `O=C1CN(C(=O)c2cnc[nH]2)Cc2[nH]c(-c3ccncc3)c(Nc3ccccc3)c21` [Example 59, 6-(1H-Imidazol-5-ylcarbonyl)-3-(phenylamino)-2-(pyridin-4-yl)-1,5,6,7-tetrahydro-4H-pyrrolo[2,3-c]pyridin-4-one], the IC50 under setting [1] was determined as 0.01 µM.
For the molecule `O=C1CSCc2[nH]c(-c3ccncc3C(F)(F)F)c(Nc3ccccc3)c21` [Example 299, 3-(Phenylamino)-2-[3-(trifluoromethyl)pyridin-4-yl]-1,7-dihydrothiopyrano[3,4-b]pyrrol-4(5H)-one], the half-maximal inhibitory concentration (IC50) under setting [1] is 7.36 µM.
In the case of `CC(=O)Nc1cc(-c2[nH]c3c(c2Nc2ccccc2)C(=O)CN(C(=O)CC(F)(F)F)C3)ccn1` [Example 169, N-{4-[3-Anilino-4-oxo-6-(3,3,3-trifluoropropanoyl)-4,5,6,7-tetrahydro-1H-pyrrolo[2,3-c]pyridin-2-yl]pyridin-2-yl}acetamide], the half-inhibitory concentration (IC50) under setting [1] turned out to be 0.005 µM.
With `O=C1CN(C(=O)NC2CCOCC2)Cc2[nH]c(-c3ccncc3)c(Nc3ccccc3)c21` [Example 96, 4-Oxo-3-(phenylamino)-2-(pyridin-4-yl)-N-(tetrahydro-2H-pyran-4-yl)-1,4,5,7-tetrahydro-6H-pyrrolo[2,3-c]pyridine-6-carboxamide], under setting [1], the half-maximal inhibitory concentration (IC50) is 0.055 µM.
In the case of `O=C1CN(S(=O)(=O)CC2CCOCC2)Cc2[nH]c(-c3ccncc3)c(Nc3ccccc3)c21` [Example 71, 3-(phenylamino)-2-(pyridin-4-yl)-6-[(tetrahydro-2H-pyran-4-ylmethyl)sulfonyl]-1,5,6,7-tetrahydro-4H-pyrrolo[2,3-c]pyridin-4-one], the IC50 under setting [1] was determined as 0.008 µM.
For the molecule `CC(=O)Nc1cc(-c2[nH]c3c(c2Nc2ccccc2)C(=O)CN(C(=O)CCF)C3)ccn1` [Example 211, N-4-[6-(3-Fluoropropanoyl)-4-oxo-3-(phenylamino)-4,5,6,7-tetrahydro-1H-pyrrolo[2,3-c]pyridin-2-yl]pyridin-2-ylacetamide], the IC50 under setting [1] was 0.004 µM.
Still for that read-out and setting: then `Cc1nccc(-c2[nH]c3c(c2Nc2ccccc2)C(=O)CNC3)n1` [Example 16, 2-(2-Methylpyrimidin-4-yl)-3-(phenylamino)-1,5,6,7-tetrahydro-4H-pyrrolo[2,3-c]pyridin-4-one], with 0.949 µM.
`COc1ccc(C(=O)Nc2cc(-c3[nH]c4c(c3Nc3ccccc3)C(=O)CN(S(=O)(=O)N(C)C)C4)ccn2)cc1F` [Example 289, N-4-[6-(Dimethylsulfamoyl)-4-oxo-3-(phenylamino)-4,5,6,7-tetrahydr-1H-pyrrolo[2,3-c]pyridin-2-yl]pyridin-2-yl-3-fluoro-4-methoxybenzamide]: the IC50 under setting [1] came out at 0.006 µM.
Same read-out and setting: for `CC(=O)Nc1cc(-c2[nH]c3c(c2Nc2ccc(C)cc2)C(=O)CN(C(C)=O)C3)ccn1` [Example 319, N-(4-(6-Acetyl-3-[(4-methylphenyl)amino]-4-oxo-4,5,6,7-tetrahydro-1H-pyrrolo[2,3-c]pyridin-2-yl)pyridin-2-yl)acetamide] the value was 0.192 µM; for `CC(=O)Nc1cc(-c2[nH]c3c(c2Nc2ccccc2)C(=O)CN(C(=O)N(C)C)C3)ccn1` [Example 124, 2-(2-Acetamidopyridin-4-yl)-3-anilino-N,N-dimethyl-4-oxo-1,4,5,7-tetrahydro-6H-pyrrolo[2,3-c]pyridine-6-carboxamide], 0.004 µM; for `COc1ccc(C(=O)Nc2cc(-c3c(Nc4ccccc4)c4c(n3C)CNCC4=O)ccn2)cc1F` [Example 287, 3-Fluoro-4-methoxy-N-4-[1-methyl-4-oxo-3-(phenylamino)-4,5,6,7-tetrahydro-1H-pyrrolo[2,3-c]pyridin-2-yl]pyridin-2-ylbenzamide], 2.06 µM.
For `CS(=O)(=O)N1CC(=O)c2c([nH]c(-c3ccncc3)c2Nc2ccccc2)C1` [Example 19, 6-(Methylsulfonyl)-3-(phenylamino)-2-(pyridin-4-yl)-1,5,6,7-tetrahydro-4H-pyrrolo[2,3-c]pyridin-4-one], under setting [1], the concentration for half-maximal inhibition (IC50) was determined as 0.008 µM.
Turning to `CC(=O)N1CC(=O)c2c([nH]c(-c3ccncc3OCC(F)(F)F)c2Nc2ccccc2)C1` [Example 229, 6-Acetyl-3-(phenylamino)-2-[3-(2,2,2-trifluoroethoxy)pyridin-4-yl]-1,5,6,7-tetrahydro-4H-pyrrolo[2,3-c]pyridin-4-one], the IC50 under setting [1] was found to be 0.163 µM.
Still for that read-out and setting: for `O=C1CN(C(=O)N2CCOCC2)Cc2[nH]c(-c3ccncc3OCC(F)F)c(Nc3ccccc3)c21` [Example 239, 2-[3-(2,2-Difluoroethoxy)pyridin-4-yl]-6-(morpholin-4-ylcarbonyl)-3-(phenylamino)-1,5,6,7-tetrahydro-4H-pyrrolo[2,3-c]pyridin-4-one] the value was 0.02 µM; for `COCCOCCNC(=O)N1CC(=O)c2c([nH]c(-c3ccncc3)c2Nc2ccccc2)C1` [Example 90, N-[2-(2-Methoxyethoxy)ethyl]-4-oxo-3-(phenylamino)-2-(pyridin-4-yl)-1,4,5,7-tetrahydro-6H-pyrrolo[2,3-c]pyridine-6-carboxamide], 0.021 µM.
`CC(=O)Nc1cc(-c2[nH]c3c(c2Nc2ccccc2)C(=O)CN(S(=O)(=O)C2CC2)C3)ccn1` [Example 172]: the IC50 under setting [1] stood at 0.005 µM.
As to `CC(=O)Nc1cc(-c2[nH]c3c(c2Nc2ccc(C)cc2)C(=O)CN(C(=O)N(C)C)C3)ccn1` [Example 317, 2-[2-(Acetylamino)pyridin-4-yl]-N,N-dimethyl-3-[(4-methylphenyl)amino]-4-oxo-1,4,5,7-tetrahydro-6H-pyrrolo[2,3-c]pyridine-6-carboxamide], under setting [1], the IC50 stood at 0.05 µM.
Still for that read-out and setting: for `O=C1CN(C(=O)c2cccnc2)Cc2[nH]c(-c3ccncc3)c(Nc3ccccc3)c21` [Example 62, 3-(phenylamino)-2-(pyridin-4-yl)-6-(pyridin-3-ylcarbonyl)-1,5,6,7-tetrahydro-4H-pyrrolo[2,3-c]pyridin-4-one] the value was 0.015 µM; for `O=C(Nc1cc(-c2[nH]c3c(c2Nc2ccccc2)C(=O)CNC3)ccn1)c1ccc(F)cc1` [Example 134, N-[4-(3-anilino-4-oxo-4,5,6,7-tetrahydro-1H-pyrrolo[2,3-c]pyridin-2-yl)pyridin-2-yl]-4-fluorobenzamide], 0.036 µM; for `CC(=O)Nc1cc(-c2[nH]c3c(c2Nc2ccccc2)C(=O)CN(C(=O)C(C)C(F)(F)F)C3)ccn1` (racemic) [Example 178, N-(4-{3-Anilino-4-oxo-6-[(2RS)-3,3,3-trifluoro-2-methylpropanoyl]-4,5,6,7-tetrahydro-1H-pyrrolo[2,3-c]pyridin-2-yl}pyridin-2-yl)acetamide], 0.005 µM.
On to `COc1cnccc1-c1[nH]c2c(c1Nc1ccccc1)C(=O)CN(C(C)=O)C2` [Example 105, 6-Acetyl-2-(3-methoxypyridin-4-yl)-3-(phenylamino)-1,5,6,7-tetrahydro-4H-pyrrolo[2,3-c]pyridin-4-one], for which the half-inhibitory concentration (IC50) under setting [1] turned out to be 0.012 µM.
`COc1cc(C(=O)Nc2cc(-c3[nH]c4c(c3Nc3ccccc3)C(=O)CN(C(=O)N3CCOCC3)C4)ccn2)ccc1F` [Example 260, 4-Fluoro-3-methoxy-N-4-[6-(morpholin-4-ylcarbonyl)-4-oxo-3(phenylamino)-4,5,6,7-tetrahydro-1H-pyrrolo[2,3-c]pyridin-2-yl]pyridin-2-ylbenzamide] gave an IC50 of 0.008 µM.
On to `Cc1cc(F)ccc1C(=O)Nc1cc(-c2[nH]c3c(c2Nc2ccccc2)C(=O)CN(C(=O)OC(C)(C)C)C3)ccn1` [Example 263, tert-Butyl 2-2-[(4-fluoro-2-methylbenzoyl)amino]pyridin-4-yl-4-oxo-3-(phenylamino)-1,4,5,7-tetrahydro-6H-pyrrolo[2,3-c]pyridine-6-carboxylate], for which the IC50 under setting [1] came out at 0.038 µM.
Turning to `CC(=O)Nc1cc(-c2[nH]c3c(c2Nc2ccccc2)C(=O)CN(C(=O)C2CC2)C3)ccn1` [Example 30, N-{4-[6-(Cyclopropylcarbonyl)-4-oxo-3-(phenylamino)-4,5,6,7-tetrahydro-1H-pyrrolo[2,3-c]pyridin-2-yl]pyridin-2-yl}acetamide], the 50% inhibitory concentration (IC50) under setting [1] came out at 0.007 µM.
Turning to `CNC(=O)N1CC(=O)c2c([nH]c(-c3ccncc3OCC3CC3)c2Nc2ccccc2)C1` [Example 251, 2-[3-(Cyclopropylmethoxy)pyridin-4-yl]-N-methyl-4-oxo-3-(phenylamino)-1,4,5,7-tetrahydro-6H-pyrrolo[2,3-c]pyridine-6-carboxamide], the IC50 under setting [1] was 0.012 µM.
Same read-out and setting: for `O=C1CN(S(=O)(=O)c2cnc[nH]2)Cc2[nH]c(-c3ccnc(NC(=O)C4(F)CC4)c3)c(Nc3ccccc3)c21` [Example 165, N-{4-[3-Anilino-6-(1H-imidazol-5-ylsulfonyl)-4-oxo-4,5,6,7-tetrahydro-1H-pyrrolo[2,3-c]pyridin-2-yl]pyridin-2-yl}-1-fluorocyclopropanecarboxamide] the value was 0.014 µM; for `O=C1CN(S(=O)(=O)c2cnc[nH]2)Cc2[nH]c(-c3ccncc3)c(Nc3ccccc3)c21` [Example 72, 6-(1H-Imidazol-5-ylsulfonyl)-3-(phenylamino)-2-(pyridin-4-yl)-1,5,6,7-tetrahydro-4H-pyrrolo[2,3-c]pyridin-4-one], 0.007 µM.
For the molecule `COCCOc1cnccc1-c1[nH]c2c(c1Nc1ccccc1)C(=O)CN(C(=O)OC(C)(C)C)C2` [Example 222, tert-Butyl 3-anilino-2-[3-(2-methoxyethoxy)pyridin-4-yl]-4-oxo-1,4,5,7-tetrahydro-6H-pyrrolo[2,3-c]pyridine-6-carboxylate], the half-inhibitory concentration (IC50) under setting [1] stood at 0.009 µM.
